Experimental data from ChEMBL document CHEMBL5329181, “Green synthesis and anti-biofilm activities of 3,5-disubstituted isoxazoline/isoxazole-linked secondary sulfonamide derivatives on Pseudomonas aeruginosa” (2023).
Active and inactive are the calls of the source. No cut-off for these calls is given here.

Assays:
Pseudomonas aeruginosa [1] = test: Antibacterial activity against Pseudomonas aeruginosa H103 assessed as reduction in bacterial growth at 200 uM measured every 15 min for 24 hrs by optical density based analysis; format: functional, organism-based
Pseudomonas aeruginosa [2] = test: Destabilization of mature biofilms in Pseudomonas aeruginosa assessed as biofilm dispersion at 200 uM incubated for 24 hrs by crystal violet staining based assay relative to control; format: functional
Pseudomonas aeruginosa [3] = test: Antibiofilm activity against Pseudomonas aeruginosa assessed as inhibition of biofilm formation at 200 uM incubated for 24 hrs by crystal violet staining based assay; format: functional, organism-based

## NNC(=O)c1ccccc1S(=O)(=O)NCc1cc(-c2ccc(Cl)cc2Cl)no1
Pseudomonas aeruginosa [1]
  Activity: inactive
Pseudomonas aeruginosa [2]
  Activity: 50%
Pseudomonas aeruginosa [3]
  Activity: inactive

## C#CCNS(=O)(=O)c1ccccc1C(=O)NN
Pseudomonas aeruginosa [1]
  Activity: inactive
Pseudomonas aeruginosa [3]
  Activity: inactive

## COc1ccc(C2=NOC(CNS(=O)(=O)c3ccccc3C(=O)NN)C2)cc1 (stereo not drawn)
Pseudomonas aeruginosa [1]
  Activity: inactive
Pseudomonas aeruginosa [2]
  Activity: 50%
Pseudomonas aeruginosa [3]
  Activity: inactive

## NNC(=O)c1ccccc1S(=O)(=O)NCC1CC(c2ccc(Cl)cc2)=NO1 (stereo not drawn)
Pseudomonas aeruginosa [1]
  Activity: inactive
Pseudomonas aeruginosa [2]
  Activity: inactive
Pseudomonas aeruginosa [3]
  Activity: inactive

## NNC(=O)c1ccccc1S(=O)(=O)NCC1CC(c2cccc([N+](=O)[O-])c2)=NO1 (stereo not drawn)
Pseudomonas aeruginosa [1]
  Activity: inactive
Pseudomonas aeruginosa [3]
  Activity: inactive

## NNC(=O)c1ccccc1S(=O)(=O)NCC1CC(c2ccccc2Cl)=NO1 (stereo not drawn)
Pseudomonas aeruginosa [1]
  Activity: inactive
Pseudomonas aeruginosa [2]
  Activity: inactive
Pseudomonas aeruginosa [3]
  Activity: inactive

## Cc1ccc(C2=NOC(CNS(=O)(=O)c3ccccc3C(=O)NN)C2)cc1 (stereo not drawn)
Pseudomonas aeruginosa [1]
  Activity: inactive
Pseudomonas aeruginosa [3]
  Activity: inactive

## NNC(=O)c1ccccc1S(=O)(=O)NCC1CC(c2ccc(Br)cc2)=NO1 (stereo not drawn)
Pseudomonas aeruginosa [1]
  Activity: inactive
Pseudomonas aeruginosa [3]
  Activity: inactive

## NNC(=O)c1ccccc1S(=O)(=O)NCC1CC(c2ccccc2)=NO1 (stereo not drawn)
Pseudomonas aeruginosa [1]
  Activity: inactive
Pseudomonas aeruginosa [3]
  Activity: inactive

## NNC(=O)c1ccccc1S(=O)(=O)NCC1CC(c2ccc(Cl)cc2Cl)=NO1 (stereo not drawn)
Pseudomonas aeruginosa [1]
  Activity: inactive
Pseudomonas aeruginosa [2]
  Activity: 50%
Pseudomonas aeruginosa [3]
  Activity: inactive

## CN[C@@H]1[C@@H](O[C@H]2O[C@H](CO)[C@@H](N)[C@H](O)[C@H]2O)O[C@H]2C[C@@H](N)[C@@H](O[C@H]3[C@H](O)[C@@H](O)[C@H](N)C[C@@H]3N)O[C@@H]2[C@@H]1O
Pseudomonas aeruginosa [2]
  Activity: 50%

## C=CCNS(=O)(=O)c1ccccc1C(=O)NN
Pseudomonas aeruginosa [1]
  Activity: inactive
Pseudomonas aeruginosa [2]
  Activity: 30%
Pseudomonas aeruginosa [3]
  Activity: inactive

## NNC(=O)c1ccccc1S(=O)(=O)NCC1CC(c2ccc(Cl)c(Cl)c2)=NO1 (stereo not drawn)
Pseudomonas aeruginosa [1]
  Activity: inactive
Pseudomonas aeruginosa [3]
  Activity: inactive

## NNC(=O)c1ccccc1S(=O)(=O)NCc1cc(-c2ccc(Br)cc2)no1
Pseudomonas aeruginosa [1]
  Activity: inactive
Pseudomonas aeruginosa [3]
  Activity: inactive
